Columns and labels:
Assay type in all cases: cell-based
[1] = tested on: E. coli DH5α; experiment: Antibacterial activity: MIC and growth curve against E. coli DH5α in 96-well plate; settings: minimal inhibitory concentration against E. coli DH5α; 96-well plate, 5×10^5 CFU/mL, 37° C., judged after 8 h
In short: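 Log-phase bacteria (OD600 ~0.5) resuspended in LB at 5×10^5 CFU/mL, exposed to recombinant protein at 50, 25, 12.5 μg/mL final in triplicate, 37 °C shaking at 175 rpm. OD600 read every 30 min; MIC is lowest concentration showing no growth.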

[2] = tested on: E. coli BL21; experiment: MIC against Gram-negative bacteria: E. coli BL21; settings: E. coli BL21; for MIC (μg/mL) E. coli BL21 / MIC against E. coli BL21: 5×10^5 CFU/mL
In short: (§1)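 Two-fold serial dilutions of each purified human EGF domain protein, three replicate wells per level, were combined with bacteria at a final 5×10^5 CFU/mL in LB. Cultures were shaken at 175 rpm, 37° C. The MIC was taken as the minimum concentration preventing growth.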

[3] = tested on: Pseudomonas aeruginosa; experiment: MIC against Gram-negative bacteria: Pseudomonas aeruginosa; settings: for MIC (μg/mL) P. aeruginosa / MIC against P. aeruginosa: 5×10^5 CFU/mL
In short: as §1

[4] = tested on: Klebsiella pneumonia; experiment: MIC against Gram-negative bacteria: Klebsiella pneumonia; settings: for MIC (μg/mL) K. pneumonia / MIC against K. pneumonia: 5×10^5 CFU/mL
In short: as §1

[5] = tested on: Enterobacter cloacae; experiment: MIC against Gram-negative bacteria: Enterobacter cloacae; settings: for MIC (μg/mL) E. cloacae / MIC against E. cloacae: 5×10^5 CFU/mL
In short: as §1

[6] = tested on: Aeromonas hydrophila; experiment: MIC against Gram-negative bacteria: Aeromonas hydrophila; settings: for MIC (μg/mL) A. hydrophila / MIC against A. hydrophila: 5×10^5 CFU/mL
In short: as §1

[7] = tested on: Citrobacter diversus; experiment: MIC against Gram-negative bacteria: Citrobacter diversus; settings: for MIC (μg/mL) C. diversus / MIC against C. diversus: 5×10^5 CFU/mL
In short: as §1

[8] = tested on: Moraxella catarrhalis; experiment: MIC against Gram-negative bacteria: Moraxella catarrhalis; settings: for MIC (μg/mL) M. catarrhalis / MIC against M. catarrhalis: 5×10^5 CFU/mL
In short: as §1

[9] = tested on: Proteus mirabilis; experiment: MIC against Gram-negative bacteria: Proteus mirabilis; settings: for MIC (μg/mL) P. mirabilis / MIC against P. mirabilis: 5×10^5 CFU/mL
In short: as §1

[10] = tested on: Proteus vulgaris; experiment: MIC against Gram-negative bacteria: Proteus vulgaris; settings: for MIC (μg/mL) P. vulgaris / MIC against P. vulgaris: 5×10^5 CFU/mL
In short: as §1

[11] = tested on: Serratia marcescens; experiment: MIC against Gram-negative bacteria: Serratia marcescens; settings: for MIC (μg/mL) S. marcescens / MIC against S. marcescens: 5×10^5 CFU/mL
In short: as §1

[12] = P. aeruginosa, 10 h cultivation at 37° C.
[13] = K. pneumonia, 10 h cultivation at 37° C.
[14] = E. cloacae, 10 h cultivation at 37° C.
[15] = A. hydrophila, 10 h cultivation at 37° C.
[16] = C. diversus, 10 h cultivation at 37° C.
[17] = M. catarrhalis, 10 h cultivation at 37° C.
[18] = P. mirabilis, 10 h cultivation at 37° C.
[19] = P. vulgaris, 10 h cultivation at 37° C.
[20] = S. marcescens, 10 h cultivation at 37° C.
[21] = Pseudomonas aeruginosa, 10 h cultivation at 37° C.
[22] = Klebsiella pneumonia, 10 h cultivation at 37° C.
[23] = Enterobacter cloacae, 10 h cultivation at 37° C.
[24] = Aeromonas hydrophila, 10 h cultivation at 37° C.
[25] = Citrobacter diversus, 10 h cultivation at 37° C.
[26] = Moraxella catarrhalis, 10 h cultivation at 37° C.
[27] = Proteus mirabilis, 10 h cultivation at 37° C.
[28] = Proteus vulgaris, 10 h cultivation at 37° C.
[29] = Serratia marcescens, 10 h cultivation at 37° C.

PRT839 (DVDECRLGLARCHPRATCLNTPLSYECHCQRGYQGDGISHCN; listed as Homo sapiens)
12.5 µg/mL: MIC [1] | MIC (μg/mL) P. aeruginosa [3, 12] | MIC (μg/mL) K. pneumonia [4, 13] | MIC (μg/mL) E. cloacae [5, 14] | MIC (μg/mL) A. hydrophila [6, 15] | MIC (μg/mL) P. vulgaris [10, 19]
50 µg/mL: MIC (μg/mL) M. catarrhalis [8, 17] | MIC (μg/mL) S. marcescens [11, 20]
25 µg/mL: MIC (μg/mL) E. coli BL21 ([2]; 10 h cultivation at 37° C.) | MIC (μg/mL) C. diversus [7, 16] | MIC (μg/mL) P. mirabilis [9, 18]

PRT185 (ELSECDSNPCRNGGSCKDQEDGYHCLCPPGYYGLHCE; listed as Homo sapiens)
12.5 µg/mL: MIC (μg/mL) P. aeruginosa [3, 12] | MIC (μg/mL) C. diversus [7, 16] | MIC (μg/mL) P. mirabilis [9, 18] | MIC (μg/mL) P. vulgaris [10, 19]
50 µg/mL: MIC [1] | MIC (μg/mL) E. cloacae [5, 14] | MIC (μg/mL) M. catarrhalis [8, 17] | MIC (μg/mL) S. marcescens [11, 20]
25 µg/mL: MIC (μg/mL) E. coli BL21 ([2]; 10 h cultivation at 37° C.) | MIC (μg/mL) K. pneumonia [4, 13] | MIC (μg/mL) A. hydrophila [6, 15]

PRT60 (EVDECSRPNRGGCEQRCLNTLGSYKCSCDPGYELAPDKRRCE; listed as Homo sapiens)
50 µg/mL: MIC (μg/mL) P. mirabilis ([9]; Proteus mirabilis, 96-well plate, 37° C., 10 h) | MIC (μg/mL) S. marcescens ([11]; Serratia marcescens, 96-well plate, 37° C., 10 h)
12.5 µg/mL: MIC [1] | MIC (μg/mL) E. coli BL21 ([2]; 96-well plate, 37° C., 10 h) | MIC (μg/mL) P. aeruginosa ([3]; Pseudomonas aeruginosa, 96-well plate, 37° C., 10 h) | MIC (μg/mL) K. pneumonia ([4]; Klebsiella pneumonia, 96-well plate, 37° C., 10 h) | MIC (μg/mL) E. cloacae ([5]; Enterobacter cloacae, 96-well plate, 37° C., 10 h) | MIC (μg/mL) A. hydrophila ([6]; Aeromonas hydrophila, 96-well plate, 37° C., 10 h) | MIC (μg/mL) C. diversus ([7]; Citrobacter diversus, 96-well plate, 37° C., 10 h) | MIC (μg/mL) P. vulgaris ([10]; Proteus vulgaris, 96-well plate, 37° C., 10 h)
25 µg/mL: MIC (μg/mL) M. catarrhalis ([8]; Moraxella catarrhalis, 96-well plate, 37° C., 10 h)

PRT1371 (GTRACPGDCRGRGRCVDGRCVCNPGFTGEDC; listed as Homo sapiens)
50 µg/mL: MIC [1]
100 µg/mL: MIC against C. diversus [7, 25]
12.5 µg/mL: MIC against E. coli BL21 ([2]; 10 h cultivation at 37° C.) | MIC against P. aeruginosa [3, 21] | MIC against K. pneumonia [4, 22] | MIC against E. cloacae [5, 23] | MIC against A. hydrophila [6, 24] | MIC against M. catarrhalis [8, 26] | MIC against P. mirabilis [9, 27] | MIC against P. vulgaris [10, 28] | MIC against S. marcescens [11, 29]

PRT789 (YGNDCHQRCQCQNGATCDHVTGECRCPPGYTGAFCE; listed as Homo sapiens)
12.5 µg/mL: MIC (μg/mL) K. pneumonia [4, 13] | MIC (μg/mL) A. hydrophila [6, 15] | MIC (μg/mL) S. marcescens [11, 20]
50 µg/mL: MIC (μg/mL) E. coli BL21 ([2]; 10 h cultivation at 37° C.) | MIC (μg/mL) E. cloacae [5, 14] | MIC (μg/mL) P. mirabilis [9, 18]
25 µg/mL: MIC [1] | MIC (μg/mL) P. aeruginosa [3, 12] | MIC (μg/mL) C. diversus [7, 16] | MIC (μg/mL) M. catarrhalis [8, 17] | MIC (μg/mL) P. vulgaris [10, 19]

PRT1395 (DCPRNCHGNGECVSGVCHCFPGFLGADCA; listed as Homo sapiens)
12.5 µg/mL: MIC [1] | MIC against P. aeruginosa [3, 21] | MIC against E. cloacae [5, 23] | MIC against C. diversus [7, 25] | MIC against M. catarrhalis [8, 26] | MIC against P. mirabilis [9, 27] | MIC against P. vulgaris [10, 28]
100 µg/mL: MIC against A. hydrophila [6, 24]
25 µg/mL: MIC against E. coli BL21 ([2]; 10 h cultivation at 37° C.) | MIC against K. pneumonia [4, 22] | MIC against S. marcescens [11, 29]

PRT1007 (HVNPCESRPCQNGATCMAQPSGYLCQCAPGYDGQNCS; listed as Homo sapiens)
12.5 µg/mL: MIC ([2]; 10 h cultivation at 37° C.) | MIC [5, 14] | MIC [7, 16] | MIC [10, 19]
25 µg/mL: MIC [1] | MIC [3, 12] | MIC [9, 18] | MIC [11, 20]
50 µg/mL: MIC [4, 13] | MIC [6, 15] | MIC [8, 17]

— patent US9833497B2, “Human originated EGF domain proteins and use of the same” (CHENGDU SOURCEBIO LIMITED-LIABILITY COMPANY, priority 2013, dated 2017)
